According to patent US20100298141A1, “SUBSTITUTED PYRIDINE N-OXIDE HERBICIDES” (E. I. DU PONT DE NEMOURS AND COMPANY, priority 2007, published 2010):

Experiments:
common sowthistle = assay: Test F preemergence test; format: in vivo, Sonchus oleraceous; details: scale 0 to 100
Procedure, shortened: (§1)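 Greenhouse screen: test chemical in surfactant-containing non-phytotoxic solvent applied preemergence to sown seeds or postemergence to sugarcane plants; after 14 to 21 days each species scored visually versus controls.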

naked crabgrass = assay: Test F preemergence test; format: in vivo, Digitaria nuda; details: scale 0 to 100
Procedure, shortened: as §1

common mallow = assay: Test F preemergence test; format: in vivo, Malva sylvestris; details: scale 0 to 100
Procedure, shortened: as §1

Russian thistle = assay: Test F preemergence test; format: in vivo, Salsola kali; details: scale 0 to 100
Description: Seeds of plant species selected from bermudagrass (Cynodon dactylon), Surinam grass (Brachiaria decumbens), large crabgrass (Digitaria sanguinalis), green foxtail (Setaria viridis), goosegrass (Eleusine indica), johnsongrass (Sorghum halepense), kochia (Kochia scoparia), pitted morningglory (Ipomoea lacunosa), purple nutsedge (Cyperus rotundus), common ragweed (Ambrosia elation), mustard (Brassica nigra), guineagrass (Panicum maximum), […] (Paspalum dilatatum), barnyardgrass (Echinochloa crus-galli), southern sandbur (Cenchrus echinatus), common sowthistle (Sonchus oleraceous), prickly […] spinosa), Italian ryegrass (Lolium multiflorum), common purslane (Portulaca oleracea), broadleaf signalgrass (Brachiaria platyphylla), common groundsel (Senecio vulgaris), common chickweed (Stellaria media), Virginia dayflower (Commelina virginica), annual bluegrass (Poa annua), naked crabgrass (Digitaria nuda), […] cochinchinensis), quackgrass (Elytrigia repens), Canada horseweed (Conyza canadensis), field bindweed (Convolvulus arvensis), […] (Bidens bipinnata), common mallow (Malva sylvestris), Russian thistle (Salsola kali), and sugarcane (Saccharum officinarum) were planted and treated preemergence with test chemicals formulated in a non-phytotoxic solvent mixture which included a surfactant. At a different time, sugarcane was treated with postemergence applications of some of the test chemicals formulated in the same manner. Plants were approximately 3- to 4-leaf stage for the postemergence treatments. Treated plants and controls were maintained in a greenhouse for 14 to 21 days, after which time all species were compared to controls and visually evaluated. […] A dash (-) response means no test result.

prickly sida = assay: Test F preemergence test; format: in vivo, Sida spinosa; details: scale 0 to 100
Procedure, shortened: as §1

green foxtail = assay: Test F preemergence test; format: in vivo, Setaria viridis; details: scale 0 to 100
Procedure, shortened: as §1

Virginia dayflower = assay: Test F preemergence test; format: in vivo, Commelina virginica; details: scale 0 to 100
Procedure, shortened: as §1

itchgrass = assay: Test F preemergence test; format: in vivo, Rottboellia cochinchinensis; details: scale 0 to 100
Procedure, shortened: as §1

guineagrass = assay: Test F preemergence test; format: in vivo, Panicum maximum; details: scale 0 to 100
Procedure, shortened: as §1

chickweed = assay: Test C postemergence test; format: in vivo, Stellaria media; details: for Plant response rating, Chickweed: scale 0 to 100, 0 no effect, 100 complete control
Procedure, shortened: (§2)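 Postemergence sprays of formulated test chemicals on plants 2 to 18 cm tall (1- to 4-leaf stage). Greenhouse hold for 13 to 15 days, then visual rating of each species against untreated controls; dash means no test result.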

common groundsel = assay: Test F preemergence test; format: in vivo, Senecio vulgaris; details: scale 0 to 100
Procedure, shortened: as §1

dallisgrass = assay: Test F preemergence test; format: in vivo, Paspalum dilatatum; details: scale 0 to 100
Procedure, shortened: as §1

winter barley = assay: Test C postemergence test; format: in vivo, Hordeum vulgare; details: for Plant response rating, Barley: scale 0 to 100, 0 no effect, 100 complete control
Procedure, shortened: as §2

johnsongrass = assay: Test F preemergence test; format: in vivo, Sorghum halepense; details: scale 0 to 100
Procedure, shortened: as §1

field bindweed = assay: Test F preemergence test; format: in vivo, Convolvulus arvensis; details: scale 0 to 100
Procedure, shortened: as §1

pitted morningglory = assay: Test F preemergence test; format: in vivo, Ipomoea lacunosa; details: scale 0 to 100
Procedure, shortened: as §1

common purslane = assay: Test F preemergence test; format: in vivo, Portulaca oleracea; details: scale 0 to 100
Procedure, shortened: as §1

annual bluegrass = assay: Test F preemergence test; format: in vivo, Poa annua; details: scale 0 to 100
Procedure, shortened: as §1

Cn1nc(C(F)(F)F)c(C[S+]([O-])c2cccc[n+]2[O-])c1OC(F)F (centres unmarked) [Compound 3]
90: Plant response rating, Crabgrass, Naked (naked crabgrass; Preemergence, 31 g ai/ha) | Dayflower plant response rating (Virginia dayflower; 62 g ai/ha, Preemergence) | Plant response rating, Dayflower (Virginia dayflower; Preemergence, 31 g ai/ha) | Itchgrass plant response rating (itchgrass; 62 g ai/ha, Preemergence) | Plant response rating, Guineagrass (guineagrass; Preemergence, 16 g ai/ha) | Plant response rating, Johnsongrass (johnsongrass; Preemergence, 31 g ai/ha)
98: Dallisgrass plant response rating (dallisgrass; 62 g ai/ha, Preemergence)
50: Bluegrass plant response rating (annual bluegrass; 62 g ai/ha, Preemergence) | Plant response rating, Bluegrass (annual bluegrass; Preemergence, 31 g ai/ha)
70: Plant response rating, Itchgrass (itchgrass; Preemergence, 31 g ai/ha) | Plant response rating, Chickweed (chickweed; 62 g ai/ha)
65: Plant response rating, Sowthistle (common sowthistle; Preemergence, 31 g ai/ha) | Plant response rating, Johnsongrass (johnsongrass; Preemergence, 16 g ai/ha)
100: Sowthistle plant response rating (common sowthistle; 62 g ai/ha, Preemergence) | Crabgrass, Naked plant response rating (naked crabgrass; 62 g ai/ha, Preemergence) | Russian Thistle plant response rating (Russian thistle; 62 g ai/ha, Preemergence) | Prickly Sida plant response rating (prickly sida; 62 g ai/ha, Preemergence) | Guineagrass plant response rating (guineagrass; 62 g ai/ha, Preemergence) | Plant response rating, Guineagrass (guineagrass; Preemergence, 31 g ai/ha) | Groundsel plant response rating (common groundsel; 62 g ai/ha, Preemergence) | Purslane plant response rating (common purslane; 62 g ai/ha, Preemergence)
85: Plant response rating, Chickweed (chickweed; 125 g ai/ha)
20: Plant response rating, Crabgrass, Naked (naked crabgrass; 8 g ai/ha, preemergence)
10: Plant response rating (0 to 100), Chickweed (chickweed; 31 g ai/ha)
95: Foxtail, Green plant response rating (green foxtail; 62 g ai/ha, Preemergence) | Plant response rating, Chickweed (chickweed; 250 g ai/ha) | Johnsongrass plant response rating (johnsongrass; 62 g ai/ha, Preemergence)
25: Field Bindweed plant response rating (field bindweed; 62 g ai/ha, Preemergence) | Plant response rating, Field Bindweed (field bindweed; Preemergence, 31 g ai/ha)
40: Plant response rating, Foxtail, Green (green foxtail; Preemergence, 16 g ai/ha)
60: Plant response rating, Groundsel (common groundsel; Preemergence, 31 g ai/ha) | Plant response rating, Purslane (common purslane; Preemergence, 31 g ai/ha)
0: Plant response rating, Sowthistle (common sowthistle; 8 g ai/ha, preemergence) | Plant response rating, Sowthistle (common sowthistle; 16 g ai/ha, preemergence) | Plant response rating, Mallow (common mallow; 8 g ai/ha, preemergence) | Plant response rating, Mallow (common mallow; Preemergence, 16 g ai/ha) | Plant response rating, Mallow (common mallow; Preemergence, 31 g ai/ha) | Plant response rating, Russian Thistle (Russian thistle; 8 g ai/ha, preemergence) | Plant response rating, Russian Thistle (Russian thistle; Preemergence, 16 g ai/ha) | Plant response rating, Prickly Sida (prickly sida; 8 g ai/ha, preemergence) | Plant response rating, Prickly Sida (prickly sida; Preemergence, 16 g ai/ha) | Plant response rating, Foxtail, Green (green foxtail; 8 g ai/ha, preemergence) | Plant response rating, Dayflower (Virginia dayflower; 8 g ai/ha, preemergence) | Plant response rating, Dayflower (Virginia dayflower; Preemergence, 16 g ai/ha) | Plant response rating, Itchgrass (itchgrass; 8 g ai/ha, preemergence) | Plant response rating, Guineagrass (guineagrass; 8 g ai/ha, preemergence) | Plant response rating, Groundsel (common groundsel; 8 g ai/ha, preemergence) | Plant response rating, Groundsel (common groundsel; Preemergence, 16 g ai/ha) | Plant response rating, Dallisgrass (dallisgrass; 8 g ai/ha, preemergence) | Plant response rating, Dallisgrass (dallisgrass; Preemergence, 16 g ai/ha) | Plant response rating (0 to 100), Barley (winter barley; 31 g ai/ha) | Plant response rating, Barley (winter barley; 62 g ai/ha) | Plant response rating, Barley (winter barley; 125 g ai/ha) | Plant response rating, Barley (winter barley; 250 g ai/ha) | Plant response rating, Johnsongrass (johnsongrass; 8 g ai/ha, preemergence) | Plant response rating, Field Bindweed (field bindweed; 8 g ai/ha, preemergence) | Plant response rating, Field Bindweed (field bindweed; Preemergence, 16 g ai/ha) | Plant response rating, Morningglory (pitted morningglory; 8 g ai/ha, preemergence) | Plant response rating, Morningglory (pitted morningglory; Preemergence, 16 g ai/ha) | Plant response rating, Purslane (common purslane; 8 g ai/ha, preemergence) | Plant response rating, Purslane (common purslane; Preemergence, 16 g ai/ha) | Plant response rating, Bluegrass (annual bluegrass; 8 g ai/ha, preemergence) | Plant response rating, Bluegrass (annual bluegrass; Preemergence, 16 g ai/ha)
75: Mallow plant response rating (common mallow; 62 g ai/ha, Preemergence) | Plant response rating, Foxtail, Green (green foxtail; Preemergence, 31 g ai/ha) | Plant response rating, Dallisgrass (dallisgrass; Preemergence, 31 g ai/ha)
35: Plant response rating, Russian Thistle (Russian thistle; Preemergence, 31 g ai/ha) | Plant response rating, Itchgrass (itchgrass; Preemergence, 16 g ai/ha) | Morningglory plant response rating (pitted morningglory; 62 g ai/ha, Preemergence)
80: Plant response rating, Crabgrass, Naked (naked crabgrass; Preemergence, 16 g ai/ha) | Plant response rating, Prickly Sida (prickly sida; Preemergence, 31 g ai/ha)
